What was measured:
acute EAE model = experiment: EAE disease severity score in MS animal model (acute EAE model, rMOG35-55 immunization); format: in vivo; settings: female C57/bl6 mice, daily i.p. treatment starting after immunization, followed to day 31; (27.84 mg/kg), GA 0.1 mg/mouse/day; n=5 per group
[1] = test system: acute Experimental Autoimmune Encephalomyelitis (EAE); settings: model of Multiple Sclerosis; cited from earlier work
[2] = test system: Chronic-Relapsing EAE (RR-EAE); settings: model of Multiple Sclerosis; cited from earlier work
[3] = wide range of doses; cited from earlier work
MS relapses = settings: current GA therapy; cited from earlier work

Row | Compound | course / severity of the disease (EAE) (acute EAE model) | effect on acute EAE [1] | effect on Chronic-Relapsing EAE [2] | side effects [3] | efficacy in preventing new relapses in MS (MS relapses)
1 | CSC[C@H]1O[C@@H](n2cnc3c(N)ncnc32)[C@H](O)[C@@H]1O [MTA, 5′-methylthioadenosine] | course of the disease with intermediate intensity | capable of preventing | ameliorates | without side effects | –
2 | L-glutamic acid polymer with L-alanine, L-lysine and L-tyrosine, acetate (salt) [GA, reference compound] | course of the disease with intermediate intensity | – | – | – | not more than 25%
